Experimental findings from ChEMBL document CHEMBL1949551, “Design and synthesis of 8-substituted benzamido-phenylxanthine derivatives as MAO-B inhibitors” (Bioorg Med Chem Lett, 2012) are described below.

For series [1], the target named is T1, Amine oxidase [flavin-containing] B (Mus musculus, UniProt Q8BW75).
T1 sequence (Q8BW75 whole entry): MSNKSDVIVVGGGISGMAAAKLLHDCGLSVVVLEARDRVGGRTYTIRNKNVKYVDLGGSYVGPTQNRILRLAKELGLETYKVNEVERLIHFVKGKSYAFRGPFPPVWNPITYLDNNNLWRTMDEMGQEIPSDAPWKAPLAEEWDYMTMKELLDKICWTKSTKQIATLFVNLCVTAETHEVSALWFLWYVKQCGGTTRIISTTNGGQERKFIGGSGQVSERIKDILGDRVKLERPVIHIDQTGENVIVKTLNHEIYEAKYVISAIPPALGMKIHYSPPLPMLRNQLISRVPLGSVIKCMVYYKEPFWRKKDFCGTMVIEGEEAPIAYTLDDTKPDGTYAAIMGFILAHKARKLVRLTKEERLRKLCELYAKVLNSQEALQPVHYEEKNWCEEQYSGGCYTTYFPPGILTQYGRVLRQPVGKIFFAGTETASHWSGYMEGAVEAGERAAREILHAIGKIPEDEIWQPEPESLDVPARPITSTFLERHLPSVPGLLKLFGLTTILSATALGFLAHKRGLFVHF
Kind of series: Inhibition of MAO-B in mouse cerebral homogenate using kynuramine as substrate after 30 mins by fluorimetry in the presence of MOA-A inhibitor clorgyline.

Series [2] concerns the target T1, Amine oxidase [flavin-containing] B. As to the kind of experiment: Inhibition of MAO-B in mouse cerebral homogenate using kynuramine as substrate after 30 mins by fluorimetry in the presence of MOA-A inhibitor clorgyline relative to control. The following applies: 0.5 h.
The target is the same in series [3]. Kind of series: Ratio of compound Ki to KW-6002 Ki for MAO-B in mouse cerebral homogenate.

Structures are written as SMILES.

Regarding `Cc1ccc(C(=O)Nc2ccc(-c3nc4c([nH]3)c(=O)n(C)c(=O)n4C)cc2)cc1`, in series [1], the IC50 came to 13.9 µM and the Ki stood at 2.77 µM. For the same compound, the “inhibition (INH)” value in series [2] is 42.3%.

As to `COc1ccc(C(=O)Nc2ccc(-c3nc4c([nH]3)c(=O)n(C)c(=O)n4C)cc2)cc1`, in series [1], the IC50 is 17.2 µM and the Ki was found to be 3.97 µM. Further, the “inhibition (INH)” value in series [2] was found to be 32.1%.

Regarding `Cn1c(=O)c2c(nc(-c3ccc(NC(=O)c4ccccc4)cc3)n2C)n(C)c1=O`, in series [1], the 50% inhibitory concentration (IC50) was 8.9 µM and the Ki was 0.26 µM. Also, the “Ratio Ki” value in series [3] is on record as 42. In series [2], the “inhibition (INH)” value is on record as 67.4%.

Consider `Cc1ccc(C(=O)Nc2ccc(-c3nc4c(c(=O)n(C)c(=O)n4C)n3C)cc2)cc1`, for which, in series [1], the IC50 was 11.3 µM and the inhibition constant Ki amounted to 1.63 µM. For the same compound, in series [2], the “inhibition (INH)” value was 53.7%.

For `COc1ccc(C(=O)Nc2ccc(-c3nc4c(c(=O)n(C)c(=O)n4C)n3C)cc2)cc1`, in series [1], the IC50 turned out to be 10.7 µM and the Ki was determined as 1.18 µM. In addition, in series [2], the “inhibition (INH)” value is on record as 58.2%.

Regarding `Cn1c(=O)c2[nH]c(-c3cccc(NC(=O)c4ccccc4)c3)nc2n(C)c1=O`, in series [1], the IC50 is 18.9 µM and the Ki was 4.21 µM. Further, the “inhibition (INH)” value in series [2] is recorded as 27.9%.

Regarding `Cc1ccc(C(=O)Nc2cccc(-c3nc4c([nH]3)c(=O)n(C)c(=O)n4C)c2)cc1`, in series [1], the half-inhibitory concentration (IC50) stood at 14 µM and the inhibitory constant (Ki) was 2.87 µM. The “inhibition (INH)” value in series [2] turned out to be 41.6%.

Regarding `COc1ccc(C(=O)Nc2cccc(-c3nc4c([nH]3)c(=O)n(C)c(=O)n4C)c2)cc1`, in series [1], the IC50 is 16 µM and the Ki turned out to be 3.49 µM. Also, in series [2], the “inhibition (INH)” value turned out to be 35.1%.

On to `Cn1c(=O)c2c(nc(-c3cccc(NC(=O)c4ccccc4)c3)n2C)n(C)c1=O`, for which, in series [1], the IC50 was 14.5 µM and the inhibitory constant (Ki) was determined as 2.95 µM. The “inhibition (INH)” value in series [2] was 40.5%.

With `Cc1ccc(C(=O)Nc2cccc(-c3nc4c(c(=O)n(C)c(=O)n4C)n3C)c2)cc1`, in series [1], the concentration for half-maximal inhibition (IC50) is 16.7 µM and the Ki turned out to be 3.56 µM. Besides, in series [2], the “inhibition (INH)” value came out at 34.4%.

Turning to `COc1ccc(C(=O)Nc2cccc(-c3nc4c(c(=O)n(C)c(=O)n4C)n3C)c2)cc1`, in series [1], the IC50 is 17.8 µM and the Ki was 3.92 µM. Moreover, in series [2], the “inhibition (INH)” value stood at 30.8%.
